Several values for one entry are separate records, joined by “and”; a condition that tells them apart may be missing. Identical values can stand only once. Toxic doses and inconclusive results are not listed. The calls were made as follows: active = survival T/C of 150% or more; inactive = T/C below 125% in these data.
Tested on: P388 leukemia ip, CD2F1 mice, survival T/C
Test: NCI In Vivo Anticancer Drug Screen. Data for tumor model P388 Leukemia (intraperitoneal) in CD2F1 (CDF1) mice
Settings: endpoint: median survival time, higher = longer survival
How it was run: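 Mice carrying the transplanted tumor received test compound or vehicle. Survival was recorded in each group, and the value is the treated-group measurement divided by that of the vehicle-treated control group.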

[1] = dose: 60.0 mg/kg/injection, schedule: Q01DX005 (ip), vehicle: saline with Tween-80

Measured: T/C

C[C@H]1C/C=C/[C@H]2[C@@H]3O[C@]3(C)[C@@H](C)[C@H]3[C@H](Cc4ccccc4)NC(=O)[C@]32OC(=O)O/C=C/[C@@](C)(O)C1=O
inactive: dose: 1.25 mg/kg/injection, schedule: Q01DX009 (ip), vehicle: Klucel (hydroxypropylcellulose) (HPC) 99 % of control | dose: 2.5 mg/kg/injection, schedule: Q01DX009 (ip), vehicle: Klucel (hydroxypropylcellulose) (HPC) 94 % of control | dose: 5.0 mg/kg/injection, schedule: Q01DX009 (ip), vehicle: Klucel (hydroxypropylcellulose) (HPC) 97 % of control | dose: 10.0 mg/kg/injection, schedule: Q01DX009 (ip), vehicle: Klucel (hydroxypropylcellulose) (HPC) 88 % of control

CCc1nn2c(-c3cnns3)nnc2s1
inactive: dose: 100.0 mg/kg/injection, schedule: Q01DX001 (ip), vehicle: Klucel (hydroxypropylcellulose) (HPC) 99 % of control | dose: 200.0 mg/kg/injection, schedule: Q01DX001 (ip), vehicle: Klucel (hydroxypropylcellulose) (HPC) 104 % of control | dose: 400.0 mg/kg/injection, schedule: Q01DX001 (ip), vehicle: Klucel (hydroxypropylcellulose) (HPC) 99 % of control

c1ccc2c(c1)c1ccccc1c1n[se]nc21
inactive: dose: 15.0 mg/kg/injection, schedule: Q01DX005 (ip), vehicle: saline with Tween-80 90 % of control | dose: 30.0 mg/kg/injection, schedule: Q01DX005 (ip), vehicle: saline with Tween-80 90 % of control | [1] 98 % of control

CCC1(c2ccccc2)C(=O)N(C)C(=O)N(CCCl)C1=O (configuration not stated)
inactive: dose: 50.0 mg/kg/injection, schedule: Q01DX009 (ip), vehicle: Klucel (hydroxypropylcellulose) (HPC) 96 % of control | dose: 100.0 mg/kg/injection, schedule: Q01DX009 (ip), vehicle: Klucel (hydroxypropylcellulose) (HPC) 98 % of control | dose: 200.0 mg/kg/injection, schedule: Q01DX009 (ip), vehicle: Klucel (hydroxypropylcellulose) (HPC) 93 % of control

CC(C)(C)OC(=O)C(N)C(F)C(=O)OC(C)(C)C (configuration not stated)
inactive: dose: 25.0 mg/kg/injection, schedule: Q04DX003 (ip), vehicle: saline with Tween-80 96 % of control | dose: 50.0 mg/kg/injection, schedule: Q04DX003 (ip), vehicle: saline with Tween-80 101 % of control | dose: 100.0 mg/kg/injection, schedule: Q04DX003 (ip), vehicle: saline with Tween-80 99 % of control and 104 % of control | dose: 400.0 mg/kg/injection, schedule: Q04DX003 (ip), vehicle: saline with Tween-80 97 % of control

CCOC(=O)c1ccc(N)[n+](C2OC(COC(=O)c3ccccc3)C(OC(=O)c3ccccc3)C2OC(=O)c2ccccc2)c1 (configuration not stated)
inactive: dose: 50.0 mg/kg/injection, schedule: Q01DX005 (ip), vehicle: saline with Tween-80 92 % of control | dose: 100.0 mg/kg/injection, schedule: Q01DX005 (ip), vehicle: saline with Tween-80 107 % of control | dose: 200.0 mg/kg/injection, schedule: Q01DX005 (ip), vehicle: saline with Tween-80 112 % of control

[Cl][Al]([Cl])[Cl]
inactive: dose: 6.25 mg/kg/injection, schedule: Q01DX009 (ip), vehicle: saline 100 % of control | dose: 12.5 mg/kg/injection, schedule: Q01DX009 (ip), vehicle: saline sonified 100 % of control | dose: 12.5 mg/kg/injection, schedule: Q01DX009 (ip), vehicle: saline 100 % of control | dose: 25.0 mg/kg/injection, schedule: Q01DX009 (ip), vehicle: saline sonified 90 % of control | dose: 25.0 mg/kg/injection, schedule: Q01DX009 (ip), vehicle: saline 95 % of control | dose: 50.0 mg/kg/injection, schedule: Q01DX009 (ip), vehicle: saline sonified 95 % of control | dose: 100.0 mg/kg/injection, schedule: Q04DX003 (ip), vehicle: saline 90 % of control | dose: 200.0 mg/kg/injection, schedule: Q04DX003 (ip), vehicle: saline 95 % of control and 100 % of control | dose: 400.0 mg/kg/injection, schedule: Q04DX003 (ip), vehicle: saline 86 % of control

C#CCSc1nnnn1-c1ccc(Br)c(C)c1
inactive: dose: 50.0 mg/kg/injection, schedule: Q01DX005 (ip), vehicle: Klucel (hydroxypropylcellulose) (HPC) 101 % of control | dose: 100.0 mg/kg/injection, schedule: Q01DX005 (ip), vehicle: Klucel (hydroxypropylcellulose) (HPC) 92 % of control | dose: 200.0 mg/kg/injection, schedule: Q01DX005 (ip), vehicle: Klucel (hydroxypropylcellulose) (HPC) 101 % of control

Cc1cc(OC(=O)c2ccccc2OS(N)(=O)=O)ccc1Cl
inactive: dose: 60.0 mg/kg/injection, schedule: Q01DX005 (ip), vehicle: Klucel (hydroxypropylcellulose) (HPC) 98 % of control | dose: 120.0 mg/kg/injection, schedule: Q01DX005 (ip), vehicle: Klucel (hydroxypropylcellulose) (HPC) 97 % of control | dose: 240.0 mg/kg/injection, schedule: Q01DX005 (ip), vehicle: Klucel (hydroxypropylcellulose) (HPC) 94 % of control

COC(=O)C1CC2C3C=CC(C4C(=O)NC(=O)C34)C12OC (configuration not stated)
inactive: dose: 100.0 mg/kg/injection, schedule: Q01DX001 (ip), vehicle: saline with Tween-80 95 % of control | dose: 200.0 mg/kg/injection, schedule: Q01DX001 (ip), vehicle: saline with Tween-80 92 % of control

NC(=S)c1cccc(-c2ccccn2)n1
inactive: dose: 100.0 mg/kg/injection, schedule: Q04DX003 (ip), vehicle: Klucel (hydroxypropylcellulose) (HPC) 102 % of control | dose: 200.0 mg/kg/injection, schedule: Q04DX003 (ip), vehicle: Klucel (hydroxypropylcellulose) (HPC) 103 % of control

O=C=Nc1nc(Cl)c(SC(F)(F)F)c(Cl)n1
inactive: [1] 97 % of control | dose: 120.0 mg/kg/injection, schedule: Q01DX005 (ip), vehicle: saline with Tween-80 98 % of control | dose: 240.0 mg/kg/injection, schedule: Q01DX005 (ip), vehicle: saline with Tween-80 108 % of control

Reference: PubChem BioAssay AID330 (DTP/NCI, 2004)
